According to EP4667483A1, “HUMAN TRANSFERRIN RECEPTOR-BINDING PEPTIDE” (JCR Pharmaceuticals Co., Ltd., priority 2023, dated 2024):
Like-named read-outs stand apart in the source and are kept apart here. Numbered stars: 1 amine (or outer) side, 2 acyl side, 3 side chain; on linkers, the order of the positions; unused ones are H or OH. Bridge positions count the residues as written; N and C are the ends. Square brackets hold non-standard residues; d marks the D form. Peptide text beside a SMILES is read from it. * marks the point of attachment. CH2CON(CH2CH2)2NCH2COOH = O=C(O)CN1CCN(C(=O)C*)CC1; NMePhe(4-COOH) = CN[C@@H](Cc1ccc(C(=O)O)cc1)C(=O)O; X1 = O=C([C@H](Cc1cccc(C(=O)[*:3])c1)N[*:1])[*:2]; Phe(3-COOH) = N[C@@H](Cc1cccc(C(=O)O)c1)C(=O)O; Trp(7-aza) = N[C@@H](Cc1c[nH]c2ncccc12)C(=O)O; NH(CH2CH2O)8Me = COCCOCCOCCOCCOCCOCCOCCOCCN*; NMePhe(3-Cl) = CN[C@@H](Cc1cccc(Cl)c1)C(=O)O; 3Pal(6-NH2) = Nc1ccc(C[C@H](N)C(=O)O)cn1; NMeW = CN[C@@H](Cc1c[nH]c2ccccc12)C(=O)O; Lys(N3) = [N-]=[N+]=NCCCC[C@H](N)C(=O)O; NMeY = CN[C@@H](Cc1ccc(O)cc1)C(=O)O; Nva(3-Et) = CCC(CC)[C@H](N)C(=O)O; NMeF = CN[C@@H](Cc1ccccc1)C(=O)O; PEG4 = NCCOCCOCCOCCOCCC(=O)O; Carboxymethyl = O=C(O)C*

Molecular target: human transferrin receptor (hTfR) (Homo sapiens, UniProt P02786)
Sequence (P02786 whole entry): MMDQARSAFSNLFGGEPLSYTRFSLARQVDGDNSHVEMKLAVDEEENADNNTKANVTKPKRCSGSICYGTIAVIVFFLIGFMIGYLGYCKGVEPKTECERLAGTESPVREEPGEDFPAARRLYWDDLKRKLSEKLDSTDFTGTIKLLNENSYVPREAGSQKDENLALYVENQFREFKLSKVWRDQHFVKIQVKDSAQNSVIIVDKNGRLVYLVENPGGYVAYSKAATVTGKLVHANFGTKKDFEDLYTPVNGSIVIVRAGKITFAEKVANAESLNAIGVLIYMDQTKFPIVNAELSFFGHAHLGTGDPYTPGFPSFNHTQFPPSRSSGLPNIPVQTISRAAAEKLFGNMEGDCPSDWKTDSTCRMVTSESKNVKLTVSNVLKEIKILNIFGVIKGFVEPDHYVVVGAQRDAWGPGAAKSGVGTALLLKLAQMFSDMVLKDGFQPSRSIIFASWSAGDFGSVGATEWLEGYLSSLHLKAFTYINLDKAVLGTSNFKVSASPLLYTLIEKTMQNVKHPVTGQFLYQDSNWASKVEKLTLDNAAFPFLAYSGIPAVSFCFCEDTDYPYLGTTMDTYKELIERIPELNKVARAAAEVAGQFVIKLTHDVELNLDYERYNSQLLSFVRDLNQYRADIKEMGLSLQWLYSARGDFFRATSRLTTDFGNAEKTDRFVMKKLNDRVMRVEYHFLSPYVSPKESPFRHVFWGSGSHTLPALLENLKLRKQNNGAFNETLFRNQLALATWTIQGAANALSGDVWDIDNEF
Assay: SPR measurement under pH 7.4 conditions (Biacore T200, CM3 chip, hTfR captured by His Tag antibody)
Format: binding
Conditions: SPR, pH 7.4
Protocol: Molecular interactions between the synthesized peptides and the transferrin receptor (hTfR) were evaluated by surface plasmon resonance (SPR) using the following method. The specific assay procedure is described below.
An CM3 sensor chip (Cytiva) was inserted into BiacoreT200 (Cytiva), then a priming operation was performed three times by using a running buffer: HBS-P+, pH7.4 (Cytiva), and an equilibrium state was created at a flow rate of […]. Ligand immobilization was performed at a flow rate of 10 µL/min. After mixing 50 µL each of 60 mM EDC solution (Cytiva) and 650 mM NHS solution (Cytiva), the mixture was reacted at a flow rate of 10 µL/min for 420 seconds. 150 µL of […] THE His Tag Antibody, mAb, Mouse (GenScript) was prepared by diluting with 10 mM acetic acid solution (pH 5.0), and reacted at a flow rate of 10 µL/ min for 420 seconds. Then, THE His Tag Antibody, mAb, Mouse (GenScript) was immobilized as a capture molecule on the CM3 sensor chip. After immobilization, capping was performed by reacting with 1.0 M ethanolamine solution (Cytiva) at a flow rate of 10 µL/min for 420 seconds. 300 nM hTfR was captured at a flow rate of 10 µL/min, a peptide solution prepared at 10 mM in DMSO was diluted with running buffer to achieve a final concentration of 10 µM, and peptide solutions at 250 nM, 125 nM, 62.5 nM, 25 nM, and 12.5 nM were prepared. . The peptide samples were reacted at a flow late of 30 µL/min for 120 seconds, followed by dissociation for 600 seconds. The kinetics of the peptide against hTfR was obtained by SPR measurement for the above samples.
The kinetic evaluation model was single-cycle kinetics, and curve fitting was performed using Biacore T200 Evaluation Software Version 3.0 (Cytiva). The binding of the peptide to hTfR was evaluated by performing curve fitting on the obtained sensorgram by the least squares method and obtaining the kon value, the koff value, and the KD value.

[1] = Table 2-1-2, read-out: hTfR SPR pH7.4 KD(n M)

**Q.** Which Kd [1] does the source give for `CC[C@H](C)[C@@H]1NC(=O)[C@H](Cc2ccc(OCC(=O)N3CCN(CC(=O)O)CC3)cc2)NC(=O)[C@H](Cc2ccc(N)nc2)NC(=O)[C@H](CC(N)=O)NC(=O)[C@H](Cc2c[nH]c3ncccc23)NC(=O)[C@H](C(C)C)NC(=O)[C@H](Cc2cccc(Cl)c2)N(C)C(=O)[C@H](C(C)C)NC(=O)[C@H](C)NC(=O)CSC[C@@H](C(=O)NCCOCCOCCOCCOCCC(N)=O)NC(=O)[C@H](Cc2ccc(O)cc2)N(C)C(=O)[C@H](Cc2cccc(C(=O)O)c2)NC(=O)[C@H](CCCNC(=N)N)NC(=O)[C@H](CCC(=O)NCCOCCOCCOCCOCCOCCOCCOCCOC)NC(=O)[C@H]([C@@H](C)CC)NC1=O` [compound 159] ({CH2CO}-AV[NMePhe(3-Cl)]V[Trp(7-aza)]N[3Pal(6-NH2)]Y(CH2CON(CH2CH2)2NCH2COOH)IIE(NH(CH2CH2O)8Me)R[Phe(3-COOH)][NMeY]C[PEG4]-NH2; thioether N-15) here?
**A.** The Kd was 6.55 nM.

**Q.** How did the Kd [1] turn out when `CC[C@H](C)[C@@H]1NC(=O)[C@H](Cc2ccc(OCC(=O)N3CCN(CC(=O)O)CC3)cc2)NC(=O)[C@H](Cc2ccc(N)nc2)NC(=O)[C@H](CC(N)=O)NC(=O)[C@H](Cc2cn(CC(=O)O)c3ccccc23)NC(=O)[C@H](C(C)C)NC(=O)[C@H](Cc2cccc(Cl)c2)N(C)C(=O)[C@H](C(C)C)NC(=O)[C@H](C)NC(=O)CSC[C@@H](C(=O)NCCOCCOCCOCCOCCC(N)=O)NC(=O)[C@H](Cc2ccc(O)cc2)N(C)C(=O)[C@H](Cc2ccncc2)NC(=O)[C@H](CCCNC(=N)N)NC(=O)[C@H](CCC(=O)NCCOCCOCCOCCOCCOCCOCCOCCOC)NC(=O)[C@H]([C@@H](C)CC)NC1=O` [compound 160] was run?
**A.** The Kd was 20.8 nM.

**Q.** Which Kd [1] does the source give for `CCC(CC)[C@@H]1NC(=O)[C@H](Cc2ccc(OCC(=O)O)cc2)NC(=O)[C@H](Cc2ccc(N)nc2)NC(=O)[C@H](CC(N)=O)NC(=O)[C@H](Cc2c[nH]c3ncccc23)NC(=O)[C@H](C(C)C)NC(=O)[C@H](Cc2cccc(Cl)c2)N(C)C(=O)[C@H](C(C)C)NC(=O)[C@H](C)NC(=O)CSC[C@@H](C(=O)NCCOCCOCCOCCOCCC(N)=O)NC(=O)[C@H](Cc2ccc(C(=O)O)cc2)N(C)C(=O)[C@H](Cc2cccc(C(=O)O)c2)NC(=O)[C@H](CCCNC(=N)N)NC(=O)[C@H](CCC(=O)NCCOCCOCCOCCOCCOCCOCCOCCOC)NC(=O)[C@H]([C@@H](C)CC)NC1=O` [compound 161] ({CH2CO}-AV[NMePhe(3-Cl)]V[Trp(7-aza)]N[3Pal(6-NH2)]Y(Carboxymethyl)[Nva(3-Et)]IE(NH(CH2CH2O)8Me)R[Phe(3-COOH)][NMePhe(4-COOH)]C[PEG4]-NH2; thioether N-15) here?
**A.** Its Kd is 12200 nM.

**Q.** With `CCC(CC)[C@@H]1NC(=O)[C@H](Cc2ccc(O)cc2)NC(=O)[C@H](Cc2ccc(O)cc2)NC(=O)[C@H](CC(N)=O)NC(=O)[C@H](Cc2c[nH]c3ccccc23)N(C)C(=O)[C@H](C(C)C)NC(=O)[C@H](Cc2ccccc2)N(C)C(=O)[C@H](C(C)C)NC(=O)[C@H](C)NC(=O)CSC[C@@H](C(=O)NCC(=O)N[C@@H](CCCCN=[N+]=[N-])C(N)=O)NC(=O)[C@H](Cc2ccc(O)cc2)N(C)C(=O)[C@H](Cc2cccc(C(=O)NCCOCCOCCOCCOCCC(=O)O)c2)NC(=O)[C@H](CCCNC(=N)N)NC(=O)[C@H](CCCCN)NC(=O)[C@H]([C@@H](C)CC)NC1=O` [compound 195] ({CH2CO}-AV[NMeF]V[NMeW]NYY[Nva(3-Et)]IKR[X1](PEG4)[NMeY]CG[Lys(N3)]-NH2; thioether N-15) as the molecule, how does the Kd (Table 1-3-2-2, read-out: hTfR SPR pH7.4 KD) read?
**A.** Its Kd is 5.77 nM.

**Q.** Which Kd (Table 2-2, read-out: hTfR SPR pH7.4 KD) does the source give for `CC[C@H](C)[C@@H]1NC(=O)[C@H](Cc2ccc(OC)cc2)NC(=O)[C@H](Cc2ccc(N)nc2)NC(=O)[C@H](CC(N)=O)NC(=O)[C@H](Cc2cnc3ccccn23)NC(=O)[C@H](C(C)C)NC(=O)[C@H](Cc2cccc(Cl)c2)N(C)C(=O)[C@H](C(C)C)NC(=O)[C@H](C)NC(=O)CSC[C@@H](C(=O)NCC(=O)N[C@H](CCC(=O)O)C(=O)N[C@H](CCC(=O)O)C(=O)N[C@H](CCC(=O)O)C(=O)N[C@H](CO)C(=O)N[C@H](CO)C(=O)N[C@@H](CCCCN=[N+]=[N-])C(N)=O)NC(=O)[C@H](Cc2ccc(C(=O)O)cc2)N(C)C(=O)[C@H](Cc2ccncc2)NC(=O)[C@H](CCCNC(=N)N)NC(=O)[C@H](CCCNC(=N)N)NC(=O)[C@H]([C@@H](C)CC)NC1=O` [compound 200] here?
**A.** Its Kd is 81.6 nM.
